Structures can show the parent of a compound that is named as a salt.
Assays:
[1] = target: T1, DA-uptake (reuptake of dopamine in synaptosomes) (Rattus norvegicus, UniProt P23977); assay: Inhibition of dopamine (DA) reuptake in synaptosomes; type: biochemical
T1 construct: In synaptosomes as described in WO 97/16451; from tissue
Method: (§1) A number of compounds were tested for their ability to inhibit the reuptake of the monoamine neurotransmitters dopamine (DA) noradrenaline(NA) and serotonin (5-HT) In synaptosomes as described in WO 97/16451.
(§2) The test values are given as IC50 (the concentration (μM) of the test substance which inhibits the specific binding of ^3H-DA, ^3H-NA, or ^3H-5-HT by 50%).

[2] = target: T2, NA-uptake (reuptake of noradrenaline in synaptosomes) (Rattus norvegicus, UniProt Q9WTR4); assay: Inhibition of noradrenaline (NA) reuptake in synaptosomes; type: biochemical
T2 construct: In synaptosomes as described in WO 97/16451; from tissue
T2 sequence (Q9WTR4 1-597): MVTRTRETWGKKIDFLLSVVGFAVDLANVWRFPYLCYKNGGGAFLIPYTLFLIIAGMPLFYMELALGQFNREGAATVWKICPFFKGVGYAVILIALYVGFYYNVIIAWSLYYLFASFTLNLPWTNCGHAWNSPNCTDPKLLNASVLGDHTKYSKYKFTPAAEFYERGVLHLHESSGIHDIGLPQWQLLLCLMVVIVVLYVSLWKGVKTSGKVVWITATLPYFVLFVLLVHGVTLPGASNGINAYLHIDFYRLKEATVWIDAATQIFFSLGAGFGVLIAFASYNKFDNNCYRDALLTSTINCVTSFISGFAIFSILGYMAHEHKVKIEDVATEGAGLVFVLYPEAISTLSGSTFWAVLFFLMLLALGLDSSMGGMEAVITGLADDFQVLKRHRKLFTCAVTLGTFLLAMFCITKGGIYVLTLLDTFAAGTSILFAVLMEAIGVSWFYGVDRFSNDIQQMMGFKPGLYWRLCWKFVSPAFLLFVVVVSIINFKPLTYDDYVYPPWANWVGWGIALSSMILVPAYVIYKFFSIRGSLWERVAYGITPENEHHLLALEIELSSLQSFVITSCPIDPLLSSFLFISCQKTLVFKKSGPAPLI
Method: as §1, §2

[3] = target: T3, 5-HT-uptake (reuptake of serotonin in synaptosomes) (Rattus norvegicus, UniProt P31652); assay: Inhibition of serotonin (5-HT) reuptake in synaptosomes; type: biochemical
T3 construct: In synaptosomes as described in WO 97/16451; from tissue
T3 sequence (P31652 whole entry): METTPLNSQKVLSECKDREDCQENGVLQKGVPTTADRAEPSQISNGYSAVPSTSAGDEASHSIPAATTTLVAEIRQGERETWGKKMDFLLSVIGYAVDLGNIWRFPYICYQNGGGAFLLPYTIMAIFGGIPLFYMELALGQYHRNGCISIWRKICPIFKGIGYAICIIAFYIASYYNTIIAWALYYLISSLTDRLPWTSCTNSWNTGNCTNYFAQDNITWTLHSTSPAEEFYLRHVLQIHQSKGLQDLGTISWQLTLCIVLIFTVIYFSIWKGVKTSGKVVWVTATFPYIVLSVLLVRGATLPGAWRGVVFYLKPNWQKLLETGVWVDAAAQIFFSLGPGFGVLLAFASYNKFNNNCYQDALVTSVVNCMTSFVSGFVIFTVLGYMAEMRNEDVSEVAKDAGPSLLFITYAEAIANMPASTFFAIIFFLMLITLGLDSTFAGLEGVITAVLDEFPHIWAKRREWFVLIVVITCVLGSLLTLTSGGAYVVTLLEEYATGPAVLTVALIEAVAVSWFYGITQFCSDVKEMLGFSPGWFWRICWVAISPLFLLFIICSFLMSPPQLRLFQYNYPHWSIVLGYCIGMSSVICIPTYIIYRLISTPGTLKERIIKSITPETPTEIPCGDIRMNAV
Method: as §1, §2

T1 sequence (P23977 whole entry): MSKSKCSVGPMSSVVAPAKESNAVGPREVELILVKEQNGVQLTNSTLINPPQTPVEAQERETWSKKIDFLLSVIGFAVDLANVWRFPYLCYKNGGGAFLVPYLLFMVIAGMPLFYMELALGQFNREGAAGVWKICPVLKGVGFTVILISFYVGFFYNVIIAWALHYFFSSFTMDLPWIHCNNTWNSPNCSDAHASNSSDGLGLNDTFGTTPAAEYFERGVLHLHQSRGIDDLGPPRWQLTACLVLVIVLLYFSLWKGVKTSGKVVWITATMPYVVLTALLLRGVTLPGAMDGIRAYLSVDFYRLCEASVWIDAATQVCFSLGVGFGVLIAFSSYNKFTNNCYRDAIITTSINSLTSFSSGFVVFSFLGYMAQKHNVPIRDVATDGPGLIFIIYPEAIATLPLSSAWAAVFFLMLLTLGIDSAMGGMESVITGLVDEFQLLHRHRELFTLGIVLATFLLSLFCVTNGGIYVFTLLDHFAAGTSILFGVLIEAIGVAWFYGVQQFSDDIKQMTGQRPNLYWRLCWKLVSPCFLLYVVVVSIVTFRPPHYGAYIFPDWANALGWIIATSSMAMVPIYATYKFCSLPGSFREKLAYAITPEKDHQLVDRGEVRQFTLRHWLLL

Row | Structure (SMILES) | melting point | IC50 [1] | IC50 [2] | IC50 [3]
1 | Clc1cccc(OCC2C3CCC(CC2c2cccs2)N3)c1Cl (as salt: fumaric acid salt) [1st compound of method E, (2R,3S)-2-(2,3-Dichlorophenoxymethyl)-8-H-3-(2-thienyl)-8-aza-bicyclo[3.2.1]octane fumaric acid salt] | 201.2 °C | – | – | –
2 | c1csc(C2CC3CCC(N3)C2COc2cccc3ccccc23)c1 (as salt: fumaric acid salt) [2nd compound of method E, (2R,3S)-2-(1-Naphthyloxymethyl)-8-H-3-(2-thienyl)-8-aza-bicyclo[3.2.1]octane fumaric acid salt] | 199.1 °C | – | – | –
3 | CN1C2CCC1[C@H](COc1cccc(Cl)c1Cl)[C@@H](c1cccs1)C2 (stereo partly drawn) [1st compound of method D, (2R,3S)-2-(2,3-Dichlorophenoxymethyl)-8-methyl-3-(2-thienyl)-8-aza-bicyclo[3.2.1]octane fumaric acid salt] | – | 300 nM | 1.9 nM | 0.52 nM
4 | Clc1cccc(OCC2C3CCC(CC2c2cccs2)N3)c1Cl [1st compound of method E, (2R,3S)-2-(2,3-Dichlorophenoxymethyl)-8-H-3-(2-thienyl)-8-aza-bicyclo[3.2.1]octane fumaric acid salt] | – | 74 nM | 1.8 nM | 0.74 nM
5 | CN1C2CCC1[C@H](COc1cccc3ccccc13)[C@@H](c1cccs1)C2.O=C(O)/C=C/C(=O)O (stereo partly drawn) [2nd compound of method D, (2R,3S)-2-(1-Naphthyloxymethyl)-8-methyl-3-(2-thienyl)-8-aza-bicyclo[3.2.1]octane fumaric acid salt] | 203.1 °C | 360 nM | 3.6 nM | 0.42 nM
6 | c1csc(C2CC3CCC(N3)C2COc2cccc3ccccc23)c1 [2nd compound of method E, (2R,3S)-2-(1-Naphthyloxymethyl)-8-H-3-(2-thienyl)-8-aza-bicyclo[3.2.1]octane fumaric acid salt] | – | 190 nM | 1.6 nM | 0.54 nM
7 | CN1C2CCC1[C@H](COc1cccc(Cl)c1Cl)[C@@H](c1ccco1)C2.O=C(O)/C=C/C(=O)O (stereo partly drawn) [5th compound of method D, (2R,3S)-2-(2,3-Dichlorophenoxymethyl)-8-methyl-3-(2-furanyl)-8-aza-bicyclo[3.2.1]octane fumaric acid salt] | 156.4 to 205.9 °C | 310 nM | 0.9 nM | 0.36 nM
8 | CN1C2CCC1[C@H](COc1cccc3ccccc13)[C@@H](c1ccco1)C2 (stereo partly drawn) [6th compound of method D, (2R,3S)-2-(1-Naphthyloxymethyl)-8-methyl-3-(2-furanyl)-8-aza-bicyclo[3.2.1]octane fumaric acid salt] | – | 920 nM | 3 nM | 0.53 nM
